The values that follow come from patent US9650395B2, “Antibacterial compounds and methods for use” (PTC Therapeutics, Inc., priority 2011, dated 2017).

One may read the MIC as the lowest concentration found to suppress growth.

The test system of experiment [1] is super sensitive Gram-negative Escherichia coli (E. coli) BAS849. Nature of the experiment: Antibacterial activity, microbroth dilution MIC, E. coli BAS849. It is filed as cell-based. The note with it: Escherichia coli, read-out: MIC, BAS849. (In broth dilution the organism is exposed to a series of concentrations in liquid medium.)
Experiment [2] deals with Gram-positive Staphylococcus aureus (S. aureus) 29213. Put plainly: Antibacterial activity, microbroth dilution MIC, S. aureus 29213. It is filed as cell-based. As to conditions: Staphylococcus aureus; S. aureus 29213, microbroth dilution; read-out: MIC, 29213.
Experiment [3] has as its system control Gram-negative E. coli 25922 strain. Nature of the experiment: Antibacterial activity, microbroth dilution MIC, E. coli 25922. It counts as cell-based, Escherichia coli. The note with it: Escherichia coli; E. coli 25922, microbroth dilution; read-out: MIC, 25922.
Experiment [4] concerns E. coli ELZ4251 (MDR clinical isolate). Put plainly: Antibacterial activity, MIC, MDR E. coli ELZ4251. It counts as cell-based, Escherichia coli. The note with it: Escherichia coli, E. coli ELZ4251, MDR clinical isolate; read-out: MIC ELZ4251.
Experiment [5] deals with E. coli ELZ4000 (MDR clinical isolate). Nature of the experiment: Antibacterial activity, MIC, MDR E. coli ELZ4000. It counts as cell-based, Escherichia coli. As to conditions: Escherichia coli; E. coli ELZ4000, MDR clinical isolate; read-out: MIC ELZ4000.
In experiment [6] the test system is quinolone resistant E. coli LZ3111. Nature of the experiment: Antibacterial activity, MIC, quinolone resistant E. coli LZ3111. It is filed as cell-based, Escherichia coli. The note with it: Escherichia coli, read-out: MIC, LZ3111. An excerpt: (§1) The antibacterial activity from a microbroth dilution method may be presented as the minimum inhibitory concentration (MIC in […]). The MIC value is the lowest concentration of a drug which prevents macroscopically visible bacterial growth under test conditions.
Mutations in these regions are known to confer a high level resistance to the quinolone class of antibiotics.

Experiment [7] deals with Pseudomonas aeruginosa (P. aeruginosa) 27853. Put plainly: Antibacterial activity, MIC, P. aeruginosa 27853. It is filed as cell-based. The note with it: Pseudomonas aeruginosa, P. aeruginosa 27853; read-out: MIC 27853.
Description: as §1
Antibacterial activity of test compounds against the Gram-negative bacterium Pseudomonas aeruginosa (P. aeruginosa) 27853 is shown in Table 5.

The mark [8] stands for this setting: E. coli BAS849, microbroth dilution.

≈ marks a conversion by molar mass, not a printed value. Read-outs that look alike come from different tables or passages of the source. A value given as a limit tells only on which side of the number the result lay.

For the molecule `CCc1cc(C(=O)O)c(=O)[nH]c1-c1ccc(N(C)CCN(C)C)cc1` [Cpd 161, 6-(4-{[2-(dimethylamino)ethyl](methyl)amino}phenyl)-5-ethyl-2-oxo-1,2-dihydropyridine-3-carboxylic acid], the minimal inhibitory concentration (MIC) in experiment [1] (setting [8]) is below 1 µg/mL; in experiment [2], 12.5 to 150 µg/mL (≈ 36.4 to 437 µM); in experiment [3] it was 1 to 3.5 µg/mL (≈ 2.91 to 10.2 µM); in experiment [4] it was 12.5 to 150 µg/mL (≈ 36.4 to 437 µM); in experiment [5], 12.5 to 150 µg/mL (≈ 36.4 to 437 µM); in experiment [6] it was 12.5 to 150 µg/mL (≈ 36.4 to 437 µM).
`CC(C)c1cc(C(=O)O)c(=O)[nH]c1-c1ccc(N2CCCC2)cc1` [Cpd 163, 5-isopropyl-2-oxo-6-[4-(pyrrolidin-1-yl)phenyl]-1,2-dihydropyridine-3-carboxylic acid]: the MIC in experiment [1] (setting [8]) was below 1 µg/mL; in experiment [2], 12.5 to 150 µg/mL (≈ 38.3 to 460 µM); in experiment [3], 3.5 to 12.5 µg/mL (≈ 10.7 to 38.3 µM); in experiment [4], 12.5 to 150 µg/mL (≈ 38.3 to 460 µM); in experiment [5], 12.5 to 150 µg/mL (≈ 38.3 to 460 µM); in experiment [6], 12.5 to 150 µg/mL (≈ 38.3 to 460 µM).
With `O=C(O)c1cc(C2CC2)c(-c2ccc(N3CCCC3)cc2)[nH]c1=O` [Cpd 164, 5-cyclopropyl-2-oxo-6-[4-(pyrrolidin-1-yl)phenyl]-1,2-dihydropyridine-3-carboxylic acid], the MIC in experiment [1] (setting [8]) was below 1 µg/mL; in experiment [2] it was 3.5 to 12.5 µg/mL (≈ 10.8 to 38.5 µM); in experiment [3], 1 to 3.5 µg/mL (≈ 3.08 to 10.8 µM); in experiment [4], 12.5 to 150 µg/mL (≈ 38.5 to 462 µM); in experiment [5], 12.5 to 150 µg/mL (≈ 38.5 to 462 µM); in experiment [6], 12.5 to 150 µg/mL (≈ 38.5 to 462 µM).
Turning to `CCc1cc(C(=O)O)c(=O)[nH]c1-c1ccc(N2CCC(NCc3ccccc3)C2)cc1.Cl` (centres unmarked) [Cpd 174, 6-{4-[3-(benzylamino)pyrrolidin-1-yl]phenyl}-5-ethyl-2-oxo-1,2-dihydropyridine-3-carboxylic acid hydrochloride], the MIC was 12.5 to 150 µg/mL in experiment [7]; below 1 µg/mL in experiment [1] (setting [8]); 12.5 to 150 µg/mL in experiment [2]; below 1 µg/mL in experiment [3]; 12.5 to 150 µg/mL in experiment [4]; 12.5 to 150 µg/mL in experiment [5]. Besides, the MIC in experiment [6] lay within 12.5 to 150 µg/mL.
For `CCc1cc(C(=O)O)c(=O)[nH]c1-c1ccc(N2CC3NCCOC3C2)cc1.Cl` (centres unmarked) [Cpd 179, 5-ethyl-6-[4-(hexahydropyrrolo[3,4-b][1,4]oxazin-6(2H)-yl)phenyl]-2-oxo-1,2-dihydropyridine-3-carboxylic acid hydrochloride], the MIC in experiment [1] (setting [8]) lay within 1 to 3.5 µg/mL; in experiment [2], 12.5 to 150 µg/mL; in experiment [3] it was 3.5 to 12.5 µg/mL; in experiment [4], 12.5 to 150 µg/mL; in experiment [5], 12.5 to 150 µg/mL; in experiment [6], 12.5 to 150 µg/mL.
Take `CCc1cc(C(=O)O)c(=O)[nH]c1-c1ccc(N2CCC(CN(C)Cc3ccccc3)C2)cc1.O=C(O)C(F)(F)F` (centres unmarked) [Cpd 183, 6-[4-(3-{[benzyl(methyl)amino]methyl}pyrrolidin-1-yl)phenyl]-5-ethyl-2-oxo-1,2-dihydropyridine-3-carboxylic acid trifluoroacetate]: the MIC in experiment [1] is below 1 µg/mL; in experiment [2] it was 12.5 to 150 µg/mL; in experiment [3], 3.5 to 12.5 µg/mL; in experiment [4], 12.5 to 150 µg/mL; in experiment [5], 12.5 to 150 µg/mL; in experiment [6], 12.5 to 150 µg/mL.
Consider `CCc1cc(C(=O)O)c(=O)[nH]c1-c1ccc(N2C[C@H]3CC[C@@H](N)[C@H]3C2)cc1.O=C(O)C(F)(F)F` [Cpd 202, 6-{4-[(3aR,4R,6aS)-4-aminohexahydrocyclopenta[c]pyrrol-2(1H)-yl]phenyl}-5-ethyl-2-oxo-1,2-dihydropyridine-3-carboxylic acid trifluoroacetate], for which the minimal inhibitory concentration (MIC) in experiment [7] was in the range of 12.5 to 150 µg/mL; in experiment [1], 1 to 3.5 µg/mL; in experiment [2], 12.5 to 150 µg/mL; in experiment [3], 12.5 to 150 µg/mL; in experiment [4] it was 12.5 to 150 µg/mL; in experiment [5], 12.5 to 150 µg/mL. For the same molecule, in experiment [6], the minimal inhibitory concentration (MIC) is 12.5 to 150 µg/mL.
In the case of `CCc1cc(C(=O)O)c(=O)[nH]c1-c1ccc(N2C[C@H]3CN(Cc4ccccc4)C[C@H]3C2)cc1.Cl` [Cpd 206, 6-{4-[(3aR,6aS)-5-benzylhexahydropyrrolo[3,4-c]pyrrol-2(1H)-yl]phenyl}-5-ethyl-2-oxo-1,2-dihydropyridine-3-carboxylic acid hydrochloride], the MIC in experiment [1] (setting [8]) lay in the range of 1 to 3.5 µg/mL; in experiment [2] it was 12.5 to 150 µg/mL; in experiment [3], 3.5 to 12.5 µg/mL; in experiment [4], 12.5 to 150 µg/mL; in experiment [5], 12.5 to 150 µg/mL; in experiment [6], 12.5 to 150 µg/mL.
For `CCc1cc(C(=O)O)c(=O)[nH]c1-c1ccc(N2C[C@H]3CN(C)C[C@H]3C2)cc1.Cl` [Cpd 208, 5-ethyl-6-{4-[(3aR,6aS)-5-methylhexahydropyrrolo[3,4-c]pyrrol-2(1H)-yl]phenyl}-2-oxo-1,2-dihydropyridine-3-carboxylic acid hydrochloride], the minimal inhibitory concentration (MIC) lay in the range of 1 to 3.5 µg/mL in experiment [1] (setting [8]); 12.5 to 150 µg/mL in experiment [2]; 3.5 to 12.5 µg/mL in experiment [3]; 12.5 to 150 µg/mL in experiment [4]; 12.5 to 150 µg/mL in experiment [5]; 12.5 to 150 µg/mL in experiment [6].
